Measured values taken from the supplement of paper PMC10307832.

What was measured:
Experiment in all cases: relative viability (nuclei count vs DMSO), 5 days (fraction); higher = more cells survive
[1] = compound: COC1=CC=C(C=C1)COC2=C(C=C(C=C2)CC3=CN=C(N=C3N)N)OC [GW-2580] + COc1cc2c(Oc3ccc(NC(=O)C4(C(=O)Nc5ccc(F)cc5)CC4)cc3F)ccnc2cc1OCCCN1CCOCC1 [Foretinib] (partner 0.25 µM)
Method in brief: (§1)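 Dosing by pin tool came one day after lung cancer cell lines were seeded in 1536-well plates, using either one drug or a fixed anchor-drug dose plus five library-drug doses (not always all listed) in √10 steps. After 5 days, nuclei were counted on 4× images. Relative viability is treated-well nuclei count divided by vehicle-well nuclei count, and values are medians of duplicate plates.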

[2] = compound: COC1=CC=C(C=C1)COC2=C(C=C(C=C2)CC3=CN=C(N=C3N)N)OC [GW-2580] + CS(=O)(=O)N1CCN(Cc2cc3nc(-c4cccc5[nH]ncc45)nc(N4CCOCC4)c3s2)CC1 [Pictilisib] (partner 1 µM)
Method in brief: as §1

[3] = compound: COC1=CC=C(C=C1)COC2=C(C=C(C=C2)CC3=CN=C(N=C3N)N)OC [GW-2580] + O=C(CCCCCCC(=O)Nc1ccccc1)NO [Vorinostat] (partner 1 µM)
Method in brief: as §1

[4] = compound: Cc1cnc(Nc2ccc(OCCN3CCCC3)cc2)nc1Nc1cccc(S(=O)(=O)NC(C)(C)C)c1 [Fedratinib] + CC(=O)Nc1cccc(-n2c(=O)n(C3CC3)c(=O)c3c(Nc4ccc(I)cc4F)n(C)c(=O)c(C)c32)c1 [Trametinib] (partner 0.02 µM)
Method in brief: as §1

[5] = compound: Cc1cnc(Nc2ccc(OCCN3CCCC3)cc2)nc1Nc1cccc(S(=O)(=O)NC(C)(C)C)c1 [Fedratinib] + NC(=O)Nc1cc(-c2cccc(F)c2)sc1C(=O)N[C@H]1CCCNC1 [AZD7762] (partner 0.2 µM)
Method in brief: as §1

Row | Cell Line | relative viability ([1]; first compound 0.08 µM) | relative viability ([1]; first compound 0.8 µM) | relative viability ([1]; first compound 2.53 µM) | relative viability ([1]; first compound 8 µM) | relative viability ([2]; first compound 0.08 µM) | relative viability ([2]; first compound 0.8 µM) | relative viability ([2]; first compound 2.53 µM) | relative viability ([2]; first compound 8 µM) | relative viability ([3]; first compound 0.08 µM) | relative viability ([3]; first compound 0.8 µM) | relative viability ([3]; first compound 2.53 µM) | relative viability ([3]; first compound 8 µM) | relative viability ([4]; first compound 0.1 µM) | relative viability ([4]; first compound 0.3162 µM) | relative viability ([4]; first compound 1 µM) | relative viability ([5]; first compound 0.1 µM) | relative viability ([5]; first compound 0.3162 µM) | relative viability ([5]; first compound 1 µM)
1 | PC-3 [JPC-3] | 1.06 | 1.06 | 0.948 | 0.865 | 0.857 | 0.798 | 0.716 | 0.68 | 0.917 | 1.26 | 0.572 | 0.639 | 0.561 | 0.757 | 0.655 | 0.775 | 0.976 | 0.668
2 | PC-14 | 1.08 | 1.07 | 0.924 | 0.936 | 0.909 | 1.03 | 0.781 | 0.725 | 0.919 | 0.977 | 0.724 | 0.607 | 0.692 | 0.871 | 0.554 | 0.275 | 0.349 | 0.215
3 | RERF-LC-KJ | 0.896 | 0.911 | 0.842 | 0.765 | 0.553 | 0.404 | 0.478 | 0.515 | 0.663 | 0.792 | 0.629 | 0.684 | 0.787 | 0.813 | 0.858 | 0.895 | 0.918 | 0.953
